Values of other authors in patent publication US8338383B1, “Use of immunomodulators for the treatment of cancer” (priority 2012, dated 2012).

Test system: patients with advanced pancreatic cancer
Details: survival from study enrollment to death from any cause

SMILES	median Overall Survival [months]	increased median survival versus 5-FU [months]
O=c1[nH]cc(F)c(=O)[nH]1 [5-FU, 5-fluorouracil]	4.2	–
Nc1ccn([C@@H]2O[C@H](CO)[C@@H](O)C2(F)F)c(=O)n1 [gemcitabine, Gemcitabine]	5.7	1.5
